Source: US20240010684A1, “MASP INHIBITORY COMPOUNDS AND USES THEREOF” (BAYER AKTIENGESELLSCHAFT, priority 2020, published 2024)
*1 amine or outer side, *2 acyl side, *3 side chain or, on linkers, in order; H or OH if unused. Where a SMILES comes first, the peptide text is derived from it. Bridges are numbered along the chain shown (N, C = ends). [ ]: non-standard residue; d: D form. X6 = O=C(CCC(=O)[*:1])NCCCOCCOCCOCCCN[*:2]; Oic = O=C(O)[C@@H]1C[C@@H]2CCCC[C@@H]2N1; tBuAla = CC(C)(C)C[C@H](N)C(=O)O; Pen = CC(C)(S)[C@H](N)C(=O)O; NMeC = CN[C@@H](CS)C(=O)O; Orn = NCCC[C@H](N)C(=O)O; Dab = NCC[C@H](N)C(=O)O; Dap = NC[C@H](N)C(=O)O; PEG2 = NCCOCCOCCC(=O)O; Ahx = NCCCCCC(=O)O; Sar = CNCC(=O)O

Experiments:
human MASP1 = human MASP1 (Homo sapiens (Human), UniProt P48740); experiment: Biochemical human MASP1 assay (FRET substrate); settings: Average IC50; recombinant human MASP1; read-out: human MASP1 IC50
Chain of human MASP1 (P48740 other isoform, or with tags, fused parts or gaps): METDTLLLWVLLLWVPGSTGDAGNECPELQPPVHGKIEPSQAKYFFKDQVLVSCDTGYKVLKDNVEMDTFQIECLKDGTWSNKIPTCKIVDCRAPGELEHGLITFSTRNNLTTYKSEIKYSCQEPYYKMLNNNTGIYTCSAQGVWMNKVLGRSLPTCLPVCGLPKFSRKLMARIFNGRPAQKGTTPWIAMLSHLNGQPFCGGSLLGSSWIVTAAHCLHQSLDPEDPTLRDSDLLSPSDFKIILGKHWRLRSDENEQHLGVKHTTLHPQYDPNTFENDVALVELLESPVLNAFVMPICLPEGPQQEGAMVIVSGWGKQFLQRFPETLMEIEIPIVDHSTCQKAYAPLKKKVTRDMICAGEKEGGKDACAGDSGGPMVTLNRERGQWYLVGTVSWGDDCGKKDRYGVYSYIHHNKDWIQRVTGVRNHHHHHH
Source text: A truncated cDNA sequence of human MASP1 encoding the fragment corresponding to the amino acids 297-699 with a C-terminal His Tag and N-terminal Ig-kappa secretion signal (SEQ ID No: 2) was subcloned into the mammalian expression vector pcDNA3.1 (Invitrogen).
The MASP1 or MASP2 expression vectors were transfected into the HEK293 (ATCC No. CRL-1573) cell line using Lipofectamine LTX® Reagent (Thermo-Fischer), as described by the manufacturer. The mature form of the recombinant human MASP1 and MASP2 proteases were secreted into the culture medium. The MASP1 and MASP2 proteins were purified from the conditioned media by affinity chromatography on Ni-NTA Superflow resin (Qiagen) as described by the manufacturer.
2.2 Biochemical Human MASP1 Assay
Recombinant human MASP1 enzyme produced in the HEK 293 cells was diluted in the reaction buffer (50 mM HEPES pH 8,0; 100 mM NaCl; 0,01% CHAPS; 0.5 mM Gluthathione) to the concentration of 20 nM and 25 μl was transferred into each single well of 384-well white microtiter plate (Greiner Bio One 781075). 1 μl of the inhibitor compound solution (dissolved in DMSO, at the corresponding concentration) or pure DMSO as a control was added to the same wells. The enzymatic reaction was initiated by addition of 25 μl of 20 μM solution of the FRET substrate ABZ-[…]-Lys (Dnp)-NH2; (ABZ-2-aminobenzoyl; DNP 2,4-dinitrophenyl; custom synthesis by Jerini Peptide Technologies, Berlin) in the reaction buffer. The microtiter plate was incubated for 60-120 min at the temperature of 32 C. The increase of fluorescence intensity was measured in appropriate fluorescence plate reader (e.g. TECAN Ultra) using excitation wavelength of 320 nm and emission wavelength of 420 nm. IC50 values were calculated from percentage of inhibition of human MASP1 activity as a function of test compound concentration.

human MASP2 = human MASP2 (Homo sapiens (Human), UniProt O00187); experiment: Biochemical human MASP2 assay (FRET substrate); settings: Average IC50; recombinant human MASP2; read-out: human MASP2 IC50
Chain of human MASP2 (O00187 other isoform, or with tags, fused parts or gaps): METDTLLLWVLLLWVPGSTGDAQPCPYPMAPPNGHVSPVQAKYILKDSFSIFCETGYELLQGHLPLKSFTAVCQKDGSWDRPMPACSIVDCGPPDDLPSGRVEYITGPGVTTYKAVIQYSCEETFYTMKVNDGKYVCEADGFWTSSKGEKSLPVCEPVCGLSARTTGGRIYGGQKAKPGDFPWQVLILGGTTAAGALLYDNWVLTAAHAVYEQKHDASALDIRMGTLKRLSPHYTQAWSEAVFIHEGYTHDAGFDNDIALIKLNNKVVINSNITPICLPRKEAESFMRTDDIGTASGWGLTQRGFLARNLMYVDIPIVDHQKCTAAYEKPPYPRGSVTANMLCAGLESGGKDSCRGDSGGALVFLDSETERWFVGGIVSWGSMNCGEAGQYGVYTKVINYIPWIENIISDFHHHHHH
Source text: The MASP1 or MASP2 expression vectors were transfected into the HEK293 (ATCC No. CRL-1573) cell line using Lipofectamine LTX® Reagent (Thermo-Fischer), as described by the manufacturer. The mature form of the recombinant human MASP1 and M[…] were secreted into the culture medium. The MASP1 and M[…] were purified from the conditioned media by affinity chromatography on Ni-NTA Superflow resin (Qiagen) as described by the manufacturer. 2.3 Biochemical Human MASP2 Assay […] The enzymatic reaction was initiated by addition of 25 μl of 60 μM solution of the FRET substrate DABCYL-[…]; […] The microtiter plate was incubated for 60-120 min at the temperature of 32 C. The increase of fluorescence intensity was measured in appropriate fluorescence plate reader (e.g. TECAN Ultra) using excitation wavelength of 340 nm and emission wavelength of 490 nm. IC50 values were calculated from percentage of inhibition of human MASP2 activity as a function of test compound concentration.

SMILES | IC50 (human MASP1) | IC50 (human MASP2)
CC[C@H](C)[C@@H]1NC(=O)[C@H](C)NC(=O)CCC(=O)NCCCOCCOCCOCCCNC(=O)[C@H](CC(=O)O)NC(=O)[C@@H]2CCCN2C(=O)[C@H]([C@@H](C)CC)NC(=O)[C@H]2NC(=O)[C@H]([C@@H](C)CC)NC(=O)[C@@H]3CCCN3C(=O)[C@@H]3CCCN3C(=O)[C@H](CC(C)(C)C)NC(=O)[C@H](CO)NC(=O)[C@H](CCCNC(=N)N)NC(=O)[C@H](CO)NC(=O)[C@H](CSSC2(C)C)NC1=O [Example 63] (AICSRS[tBuAla]PPI[Pen]IPD; disulfide 3-11; linker N-C via X6) | 28 nM | 170 nM
CC[C@H](C)[C@@H]1NC(=O)CNC(=O)CNC(=O)[C@H](C)NC(=O)C[C@@H](C(N)=O)NC(=O)[C@@H]2CCCN2C(=O)[C@H]([C@@H](C)CC)NC(=O)[C@H]2NC(=O)[C@H]([C@@H](C)CC)NC(=O)[C@@H]3C[C@@H]4CCCC[C@@H]4N3C(=O)[C@@H]3CCCN3C(=O)[C@H](CC(C)C)NC(=O)[C@H](CO)NC(=O)[C@H](CCCNC(=N)N)NC(=O)[C@H](CO)NC(=O)[C@H](CSSC2(C)C)NC1=O [Example 42] (AGGICSRSLP[Oic]I[Pen]IPD-NH2; disulfide 5-13; lactam N-16) | 13 nM | 200 nM
CC[C@H](C)[C@@H]1NC(=O)CNC(=O)CN(C)C(=O)CCCCCNC(=O)CC[C@@H](C(N)=O)NC(=O)[C@@H]2CCCN2C(=O)[C@H]([C@@H](C)CC)NC(=O)[C@H]2NC(=O)[C@H]([C@@H](C)CC)NC(=O)[C@@H]3C[C@@H]4CCCC[C@@H]4N3C(=O)[C@@H]3CCCN3C(=O)[C@H](CC(C)C)NC(=O)[C@H](CO)NC(=O)[C@H](CCCNC(=N)N)NC(=O)[C@H](CO)NC(=O)[C@H](CSSC2(C)C)NC1=O [Example 76] ([Ahx][Sar]GICSRSLP[Oic]I[Pen]IPE-NH2; disulfide 5-13; lactam N-16) | 9.7 nM | 180 nM
CC[C@H](C)[C@@H]1NC(=O)CNC(=O)CCCCCNC(=O)[C@H](CC(=O)O)NC(=O)[C@@H]2CCCN2C(=O)[C@H]([C@@H](C)CC)NC(=O)[C@@H]2CSSC[C@H](NC1=O)C(=O)N[C@@H](CO)C(=O)N[C@@H](CCCNC(=N)N)C(=O)N[C@@H](CO)C(=O)N[C@@H](CC(C)(C)C)C(=O)N1CCC[C@H]1C(=O)N1CCC[C@H]1C(=O)N[C@@H]([C@@H](C)CC)C(=O)N2C [Example 30] (cyclo([Ahx]GICSRS[tBuAla]PPI[NMeC]IPD); disulfide 4-12) | 16 nM | 65 nM
CC[C@H](C)[C@@H]1NC(=O)CNC(=O)CNC(=O)[C@H](C)NC(=O)[C@@H](CC(=O)O)NC(=O)[C@@H]2CCCN2C(=O)[C@H]([C@@H](C)CC)NC(=O)[C@@H]2CSSC[C@H](NC1=O)C(=O)N[C@@H](CO)C(=O)N[C@@H](CCCNC(=N)N)C(=O)N[C@@H](CO)C(=O)N[C@@H](CC(C)C)C(=O)N1CCC[C@H]1C(=O)N1CCC[C@H]1C(=O)N[C@@H]([C@@H](C)CC)C(=O)N2 [Example 17] (cyclo(AGGICSRSLPPICIP[dD]); disulfide 5-13) | 26 nM | 88 nM
CC[C@H](C)[C@@H]1NC(=O)[C@H](C)NC(=O)CNC(=O)[C@H](C)NC(=O)[C@H](CC(=O)O)NC(=O)[C@@H]2CCCN2C(=O)[C@H]([C@@H](C)CC)NC(=O)[C@H]2NC(=O)[C@H]([C@@H](C)CC)NC(=O)[C@@H]3CCCN3C(=O)[C@@H]3CCCN3C(=O)[C@H](CC(C)(C)C)NC(=O)[C@H](CO)NC(=O)[C@H](CCCNC(=N)N)NC(=O)[C@H](CO)NC(=O)[C@H](CSSC2(C)C)NC1=O [Example 26] (cyclo(AGAICSRS[tBuAla]PPI[Pen]IPD); disulfide 5-13) | 12 nM | 170 nM
CC[C@H](C)[C@@H]1NC(=O)[C@H](CCN)NC(=O)[C@H](CN)NC(=O)[C@H]([C@@H](C)CC)NC(=O)[C@H]2NC(=O)[C@H]([C@@H](C)CC)NC(=O)[C@@H]3CCCN3C(=O)[C@@H]3CCCN3C(=O)[C@H](CC(C)(C)C)NC(=O)[C@H](CO)NC(=O)[C@H](CCCNC(=N)N)NC(=O)[C@H](CO)NC(=O)[C@H](CSSC2(C)C)NC1=O [Example 73] (cyclo(CSRS[tBuAla]PPI[Pen]I[Dap][Dab]I); disulfide 1-9) | 42 nM | 430 nM
CC[C@H](C)[C@@H]1NC(=O)[C@H](C)NC(=O)CNC(=O)[C@H](C)NC(=O)[C@H](CC(=O)O)NC(=O)[C@@H]2CCCN2C(=O)[C@H]([C@@H](C)CC)NC(=O)[C@@H]2CSSC[C@H](NC1=O)C(=O)N[C@@H](CO)C(=O)N[C@@H](CCCNC(=N)N)C(=O)N[C@@H](CO)C(=O)N[C@@H](CC(C)(C)C)C(=O)N1CCC[C@H]1C(=O)N1CCC[C@H]1C(=O)N[C@@H]([C@@H](C)CC)C(=O)N2C [Example 31] (cyclo(AGAICSRS[tBuAla]PPI[NMeC]IPD); disulfide 5-13) | 16 nM | 130 nM

The remaining compounds from weak to strong by IC50 (human MASP1), led by results:

IC50 (human MASP1) | IC50 (human MASP2) | SMILES
190 nM | 91 nM | CC[C@H](C)[C@@H]1NC(=O)CNC(=O)[C@@H](N)CCCCNC(=O)[C@H](CC(=O)O)NC(=O)[C@@H]2CCCN2C(=O)[C@H]([C@@H](C)CC)NC(=O)[C@@H]2CSSC[C@H](NC1=O)C(=O)N[C@@H](CO)C(=O)N[C@@H](CCCNC(=N)N)C(=O)N[C@@H](CO)C(=O)N[C@@H](CC(C)C)C(=O)N1CCC[C@H]1C(=O)N1CCC[C@H]1C(=O)N[C@@H]([C@@H](C)CC)C(=O)N2 [Example 22] (H-KGICSRSLPPICIPD; lactam 1-C; disulfide 4-12)
110 nM | 210 nM | CC[C@H](C)[C@@H]1NC(=O)CNC(=O)CCOCCOCCNC(=O)[C@H](CC(=O)O)NC(=O)[C@@H]2CCCN2C(=O)[C@H]([C@@H](C)CC)NC(=O)[C@@H]2CSSC[C@H](NC1=O)C(=O)N[C@@H](CO)C(=O)N[C@@H](CCCNC(=N)N)C(=O)N[C@@H](CO)C(=O)N[C@@H](CC(C)C)C(=O)N1CCC[C@H]1C(=O)N1CCC[C@H]1C(=O)N[C@@H]([C@@H](C)CC)C(=O)N2 [Example 24] (cyclo(CIPD[PEG2]GICSRSLPPI); disulfide 1-8)
49 nM | 210 nM | CC[C@H](C)[C@@H]1NC(=O)CNC(=O)CNC(=O)[C@@H](C)NC(=O)[C@H](CC(=O)O)NC(=O)[C@@H]2CCCN2C(=O)[C@H]([C@@H](C)CC)NC(=O)[C@@H]2CSSC[C@H](NC1=O)C(=O)N[C@@H](CO)C(=O)N[C@@H](CCCNC(=N)N)C(=O)N[C@@H](CO)C(=O)N[C@@H](CC(C)C)C(=O)N1CCC[C@H]1C(=O)N1CCC[C@H]1C(=O)N[C@@H]([C@@H](C)CC)C(=O)N2 [Example 19] (cyclo(CIPD[dA]GGICSRSLPPI); disulfide 1-9)
21 nM | 24 nM | CC[C@H](C)[C@@H]1NC(=O)[C@@H](N)CCCNC(=O)[C@@H]2CCCN2C(=O)[C@H]([C@@H](C)CC)NC(=O)[C@H]2NC(=O)[C@H]([C@@H](C)CC)NC(=O)[C@@H]3CCCN3C(=O)[C@@H]3CCCN3C(=O)[C@H](CC(C)(C)C)NC(=O)[C@H](CO)NC(=O)[C@H](CCCNC(=N)N)NC(=O)[C@H](CO)NC(=O)[C@H](CSSC2(C)C)NC1=O [Example 71, N-{3-[(6S,9S,12S,15S,18R,21S,24S,29aS,35S,38R,41S,43aS,48aS)-24-amino-21,35,41-tri[(2S)-butan-2-yl]-6-(2,2-dimethylpropyl)-9,15-bis(hydroxymethyl)-49,49-dimethyl-5,8,11,14,17,20,23,29,34,37,40,43,48-tridecaoxohexatetracontahydro-1H,5H-18,38-(methanodithiomethano)tripyrrolo[2,1-c:2′,1′-o:2″,1″-r][1,4,7,10,13,16,19,22,25,28,31,34,37]tridecaazacyclodotetracontin-12-yl]propyl}guanidine] (H-[Orn]ICSRS[tBuAla]PPI[Pen]IP; lactam 1-C; disulfide 3-11)
11 nM | 98 nM | CC[C@H](C)[C@@H]1NC(=O)[C@H](C)NC(=O)CCOCCOCCNC(=O)[C@H](CC(=O)O)NC(=O)[C@@H]2CCCN2C(=O)[C@H]([C@@H](C)CC)NC(=O)[C@H]2NC(=O)[C@H]([C@@H](C)CC)NC(=O)[C@@H]3CCCN3C(=O)[C@@H]3CCCN3C(=O)[C@H](CC(C)(C)C)NC(=O)[C@H](CO)NC(=O)[C@H](CCCNC(=N)N)NC(=O)[C@H](CO)NC(=O)[C@H](CSSC2(C)C)NC1=O [Example 34] (cyclo(AICSRS[tBuAla]PPI[Pen]IPD[PEG2]); disulfide 3-11)
